Experimental data reported in ChEMBL document CHEMBL1136973, “Structure-activity relationships of heteroaromatic esters as human rhinovirus 3C protease inhibitors” (Bioorg Med Chem Lett, 2009).
Active and inactive are the calls of the source. The rule behind the calls is not given here.

The molecules below were run against Replicase polyprotein 1ab (Severe acute respiratory syndrome-related coronavirus, UniProt P0C6X7) (assay: Inhibition of SARS coronavirus isolate Tor2 3C-like protease by FRET assay).
`O=C(Oc1cccnc1)c1cccs1` showed an IC50 of 500 nM.

What follows are molecules tested against Genome polyprotein (rhinovirus A16) (UniProt Q82122) (assay: Inhibition of HRV-16 protease 3C expressed in Escherichia coli BL21(DE3) at 1 uM by FRET assay).
Sequence of Genome polyprotein (rhinovirus A16) (Q82122 whole entry): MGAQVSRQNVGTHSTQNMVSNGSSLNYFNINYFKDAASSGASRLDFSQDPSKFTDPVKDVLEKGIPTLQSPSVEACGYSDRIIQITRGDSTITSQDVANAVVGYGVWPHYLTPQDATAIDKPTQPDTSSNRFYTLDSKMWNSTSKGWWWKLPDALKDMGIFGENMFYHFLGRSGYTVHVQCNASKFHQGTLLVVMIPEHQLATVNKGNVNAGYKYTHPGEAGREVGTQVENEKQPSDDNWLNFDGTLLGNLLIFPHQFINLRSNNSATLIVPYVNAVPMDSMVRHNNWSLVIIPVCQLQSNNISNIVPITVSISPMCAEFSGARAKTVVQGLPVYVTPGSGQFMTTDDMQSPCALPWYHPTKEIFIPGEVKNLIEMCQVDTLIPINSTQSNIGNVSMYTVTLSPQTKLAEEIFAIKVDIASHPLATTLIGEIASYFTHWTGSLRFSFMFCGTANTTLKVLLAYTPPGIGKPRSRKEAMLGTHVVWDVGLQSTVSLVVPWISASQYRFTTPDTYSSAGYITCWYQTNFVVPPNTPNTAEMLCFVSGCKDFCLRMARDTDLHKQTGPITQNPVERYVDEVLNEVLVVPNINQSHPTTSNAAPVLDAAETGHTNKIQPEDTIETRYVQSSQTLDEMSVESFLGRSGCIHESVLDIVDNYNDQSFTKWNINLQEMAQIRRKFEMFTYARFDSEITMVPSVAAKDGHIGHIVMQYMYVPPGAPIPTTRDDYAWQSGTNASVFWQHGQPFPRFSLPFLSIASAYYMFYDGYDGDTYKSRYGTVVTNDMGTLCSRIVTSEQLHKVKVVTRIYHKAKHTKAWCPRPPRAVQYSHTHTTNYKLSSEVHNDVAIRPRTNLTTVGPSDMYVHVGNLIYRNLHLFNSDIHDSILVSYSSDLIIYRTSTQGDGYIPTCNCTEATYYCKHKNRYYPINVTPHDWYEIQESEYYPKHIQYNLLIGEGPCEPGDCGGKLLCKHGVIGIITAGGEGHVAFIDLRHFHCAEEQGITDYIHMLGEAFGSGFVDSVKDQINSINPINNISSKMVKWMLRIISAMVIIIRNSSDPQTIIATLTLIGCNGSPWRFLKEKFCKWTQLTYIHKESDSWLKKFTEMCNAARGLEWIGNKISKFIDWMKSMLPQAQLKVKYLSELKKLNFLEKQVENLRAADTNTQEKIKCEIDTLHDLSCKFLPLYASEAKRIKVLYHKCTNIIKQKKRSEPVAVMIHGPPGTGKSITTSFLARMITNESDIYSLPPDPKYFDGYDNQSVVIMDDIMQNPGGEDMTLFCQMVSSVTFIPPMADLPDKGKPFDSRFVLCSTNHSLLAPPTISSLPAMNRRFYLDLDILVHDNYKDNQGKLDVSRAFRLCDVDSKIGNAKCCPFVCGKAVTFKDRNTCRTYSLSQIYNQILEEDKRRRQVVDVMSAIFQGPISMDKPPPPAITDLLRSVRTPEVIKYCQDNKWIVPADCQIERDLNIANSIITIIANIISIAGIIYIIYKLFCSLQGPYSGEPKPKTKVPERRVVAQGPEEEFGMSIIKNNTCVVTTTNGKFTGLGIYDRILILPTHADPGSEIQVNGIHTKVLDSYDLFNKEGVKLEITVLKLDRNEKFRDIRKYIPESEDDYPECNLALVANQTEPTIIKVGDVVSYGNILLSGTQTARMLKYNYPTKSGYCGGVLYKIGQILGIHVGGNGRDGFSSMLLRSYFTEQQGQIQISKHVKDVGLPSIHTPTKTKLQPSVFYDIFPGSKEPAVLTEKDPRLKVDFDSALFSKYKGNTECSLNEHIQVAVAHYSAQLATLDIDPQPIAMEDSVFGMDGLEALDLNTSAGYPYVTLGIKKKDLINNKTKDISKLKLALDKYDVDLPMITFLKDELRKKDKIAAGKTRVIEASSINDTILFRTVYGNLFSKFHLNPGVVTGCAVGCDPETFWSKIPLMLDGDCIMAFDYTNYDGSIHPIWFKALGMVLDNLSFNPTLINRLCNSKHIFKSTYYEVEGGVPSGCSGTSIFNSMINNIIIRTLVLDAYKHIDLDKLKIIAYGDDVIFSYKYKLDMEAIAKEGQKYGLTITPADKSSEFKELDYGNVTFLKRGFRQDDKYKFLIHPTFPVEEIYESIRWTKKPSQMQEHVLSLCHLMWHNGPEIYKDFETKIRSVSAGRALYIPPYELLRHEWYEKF
For `O=C(Oc1cc(Cl)cnc1O)c1ccco1`, the inhibition was “inactive”. In the case of `CCOc1nc(/C=C/c2ccccc2)oc1C(=O)Oc1cncc(Cl)c1`, the inhibition is reported as 87%. In the case of `O=C(Oc1cncc(Cl)c1)c1c[nH]cn1`, the inhibition is reported as 82%. `Cc1cc(C(=O)Oc2cncc(Cl)c2)no1` was tested, and the inhibition was “inactive”. Molecule `O=C(Oc1cncc(Cl)c1)c1ccco1` has an inhibition of 87%. Work on `NC(=O)c1ncccc1OC(=O)c1ccco1` yielded an inhibition of 14%. With `O=C(Oc1cc(=O)[nH]c2ccccc12)c1ccco1` the inhibition was 98%. For `O=C(Oc1ccncc1)c1ccco1`, the inhibition was “inactive”. `CCOc1nc(-c2ccccc2)oc1C(=O)Oc1cncc(Cl)c1` was tested, and the inhibition was “inactive”. Molecule `Nc1ncccc1OC(=O)c1ccco1` has an inhibition of 24%. Work on `Cc1ccc(-c2ccc(C(=O)Oc3cncc(Cl)c3)o2)cc1` yielded an inhibition of 79%. With `O=C(Oc1cccnc1O)c1ccco1` the inhibition was “inactive”. Molecule `NC(=O)c1cccc(OC(=O)c2ccco2)c1` has an inhibition of 5%. For `O=C(Oc1cncc(Cl)c1)c1cccs1`, the inhibition was 64%. In the case of `O=C(Oc1cncc(Cl)c1)c1ccc(-c2ccc(Cl)cc2)o1`, the inhibition is reported as 89%. With `O=C(Oc1cccnc1C(=O)O)c1ccco1` the inhibition was “inactive”. In the case of `O=C(Oc1cncc(Cl)c1)c1cn(-c2ccc(C(F)(F)F)cc2)cn1`, the inhibition is reported as 40%. `O=C(Oc1cncc(Cl)c1)c1ccc2ccccc2c1` showed an inhibition of 80%. Molecule `O=C(Oc1cccnc1)c1ccco1` has an inhibition of 8%. With `O=C(Oc1cncc(Cl)c1)c1ccc(-c2ccc([N+](=O)[O-])cc2)o1` the inhibition was 60%. Work on `O=C(Oc1cncc(Cl)c1)c1ccc(-c2ccccc2)o1` yielded an inhibition of 80%. `CCOc1nc(Cc2ccccc2)oc1C(=O)Oc1cncc(Cl)c1` gave an inhibition of 5%. For `O=C(CCc1ccccc1)Oc1cncc(Br)c1`, the inhibition was 34%. With `O=C(Oc1cncc(Cl)c1)c1cccc2ccccc12` the inhibition was 75%. Molecule `CCOc1nc(-c2ccc3ccccc3c2)oc1C(=O)Oc1cncc(Cl)c1` has an inhibition of 34%. For `NC(=O)c1ccc(OC(=O)c2ccco2)cc1`, the inhibition was 5%. `O=C(Oc1ccccn1)c1ccco1` was tested, and the inhibition was “inactive”. `O=C(/C=C/c1ccccc1)Oc1cncc(Br)c1` gave an inhibition of 63%. `CCOc1nc(C(c2ccccc2)c2ccccc2)oc1C(=O)Oc1cncc(Cl)c1` showed an inhibition of 5%. In the case of `O=C(Oc1cncc(Cl)c1)c1ccccc1`, the inhibition is reported as 59%. In the case of `O=C(Oc1cncc(Br)c1)c1ccco1`, the inhibition is reported as 90%.

What follows are molecules tested against Genome polyprotein (rhinovirus A16) (UniProt Q82122) (assay: Inhibition of HRV-16 protease 3C expressed in Escherichia coli BL21(DE3) at 10 uM by FRET assay).
For `NC(=O)c1ccc(OC(=O)c2ccco2)cc1`, the inhibition was 21%.

These molecules were tested against Genome polyprotein (rhinovirus A16, UniProt Q82122) (assay: Inhibition of HRV-16 protease 3C expressed in Escherichia coli BL21(DE3) by FRET assay).
Sequence of Genome polyprotein (Q82122 1511-1693 limits assumed): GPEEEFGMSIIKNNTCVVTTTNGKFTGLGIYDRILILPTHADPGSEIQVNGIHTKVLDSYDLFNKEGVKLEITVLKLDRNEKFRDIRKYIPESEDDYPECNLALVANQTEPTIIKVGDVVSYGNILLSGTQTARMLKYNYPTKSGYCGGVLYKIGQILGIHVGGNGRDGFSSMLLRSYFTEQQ
`CCOc1nc(/C=C/c2ccccc2)oc1C(=O)Oc1cncc(Cl)c1` showed an IC50 of 690 nM. `O=C(Oc1cc(=O)[nH]c2ccccc12)c1ccco1` was tested, and the IC50 was 200 nM. With `O=C(Oc1cncc(Cl)c1)c1ccc2ccccc2c1` the IC50 was 710 nM. `O=C(Oc1cncc(Cl)c1)c1cnc[nH]1` was tested, and the IC50 was 290 nM. With `O=C(Oc1cncc(Br)c1)c1ccco1` the IC50 was 80 nM.
